The values below come from patent publication US8592428B2 (MSD K. K., priority 2008, dated 2013).

For data set [1], the target named is T1, recombinant human liver GK (Homo sapiens, UniProt P35557).
T1 construct: made in house; host or cells: E. coli
T1 sequence (P35557 1-466 isoform P35557-2): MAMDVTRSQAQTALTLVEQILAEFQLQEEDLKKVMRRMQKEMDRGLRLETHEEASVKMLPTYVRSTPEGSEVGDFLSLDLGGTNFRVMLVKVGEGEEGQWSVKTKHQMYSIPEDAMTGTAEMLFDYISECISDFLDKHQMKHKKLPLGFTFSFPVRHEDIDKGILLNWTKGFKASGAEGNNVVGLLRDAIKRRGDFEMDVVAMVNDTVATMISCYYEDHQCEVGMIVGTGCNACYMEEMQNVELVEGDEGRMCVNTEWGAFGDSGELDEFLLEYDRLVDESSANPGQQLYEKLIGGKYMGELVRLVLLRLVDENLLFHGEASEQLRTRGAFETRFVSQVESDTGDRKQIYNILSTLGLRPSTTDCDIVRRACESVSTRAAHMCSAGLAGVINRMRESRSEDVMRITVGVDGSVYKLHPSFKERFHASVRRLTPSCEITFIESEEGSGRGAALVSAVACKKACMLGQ
Nature of the data set: Glucokinase-activating effect (Thio-NADH coupled G6PDH assay). The format is biochemical. As to conditions: final glucose concentration 2.5 mM, 30° C.; for Emax: OD level of DMSO control = 100%. An excerpt:
The excellent glucokinase-activating effect of the compounds of formula (I) may be determined by a method described in literature (for example, Diabetes, Vol. 45, pp. 1671-1677, 1996), or in accordance with it.
The glucokinase activity may be determined not by directly measuring glucose-6-phosphate but by measuring the level of Thio-NADH, which is produced when a reporter enzyme, glucose-6-phosphate dehydrogenase produces phosphogluconolactone from glucose-6-phosphate, and based on the level, the degree of glucokinase activation by the compound tested may be determined.
In this assay, used was a recombinant human liver GK, which was expressed by E. coli as a FLAG fusion protein therein and was purified by […] M2 AFFINITY GEL (Sigma).
Using a flat-bottomed 96-well plate, the assay was carried out at 30° C. 69 μl of an assay buffer (25 mM Hepes Buffer/pH=7.2, 2 mM MgCl2, 1 mM ATP, 0.5 mM TNAD, 1 mM dithiothreitol) was put into the plate, and 1 μl of a DMSO solution of the compound or DMSO alone as a control was added thereto. Next, 20 μl of an enzyme mixture (FLAG-GK, 20 U/ml G6PDH) cooled in ice was added to it, and 10 μl of a substrate, 25 mM glucose was added to it, and the reaction was initiated (final glucose concentration=2.5 mM).
After the start of the reaction, the increase in the absorbance at 405 nm was measured for 12 minutes at intervals of 30 seconds, and the increase for the first 5 minutes was used for assessing the compound tested. FLAG-GK was added so that the absorbance increase after 5 minutes in the presence of 1% DMSO could be from 0.04 to 0.06.
The OD level of the DMSO control was set as 100%; and the OD level of the test compound at different concentrations was determined. From the OD level at each concentration, Emax (%) and EC50 (μM) were computed and used as the index of the GK-activating potency of the compound.

Data set [2] in a line: Solubility in water by solution precipitation method (HPLC). Type of data set: physicochemical. The conditions noted are these: water (2% DMSO), kinetic from dmso stock, from 10 mM DMSO solution, 60 minutes stirring at room temperature, compounds of the present invention. How it is done:
For solubility in water, the solubility of a compound in water was determined by a solution precipitation method.
For an HPLC system, Agilent HPLC 1100 system was used. […] For a shaker, Microincubator M-36 (Taitec) was used. For a plate, a 96-deep well plate (Nunc. 260252) was used. For a well cap, Pre-Slit Well Cap for 96 Well PP (NALGENE. 276011) was used. For a filtration plate, MultiScreen Solubility (Millipore; MSSLBPC10) was used. For dispensation, an 8-channel electronic multipipette, Biohit Proline (Biohit), and a 96-well automatic pipetting device, Biomeck 2000 (Biomeck) were used. For a reagent used, a pure solvent for DMSO ultraviolet absorption spectrum (Dojindo 349-01025) and water (MiliQ water, manufactured by Millipore).
For a DMSO solution, a sample was prepared with DMSO to be precisely 10 mM.
Precise dispensation of 10 μL of a DMSO solution into each well of a 96-well plate was performed. Following addition of 490 μL of water to each of the wells and plate-sealing with 96-well Cap (Agilent No. 5042-1389), intense stirring processing of the plate was performed for 60 minutes at room temperature on a shaker. Subsequently, 200 μL of a treatment sample was added to a plate for centrifugal filtration, and centrifugal filtration of the sample was performed to obtain a filtrate. A sample solution was made by adding 200 μl, of a 50% aqueous acetonitrile solution to the provided filtrate.
Precise dispensation of 10 μL of a DMSO solution into each well of a 96-well plate was performed.
Detection was performed using a multi-wavelength detector (190-370 nm). For a column, the above-mentioned column was used at 40° C. A flow rate was set at 1.2 ml/min, and an amount of an injected sample at 20 μL. For a moving phase, a 0.1% aqueous phosphoric acid solution as a liquid A and acetonitrile as a liquid B were used to carry out analyses in accordance with a time schedule described below.
For the analyses, the data of UV 275 nm were adopted. […] Using the calibration curve, regression calculation of concentrations in water was carried out from Area of sample solutions (water).

Values after ≈ are worked out from the molar mass of the structure shown.

Broadly, the Emax is the maximal effect, on the per cent scale that the assay sets. As a reminder, the EC50 is the concentration giving half of the maximal effect. In general, solubility refers to how much of the substance goes into solution per volume. In the case of `CCNC(=O)c1ccc(Oc2cc3cc(-c4cnccn4)[nH]c3cc2[C@H]2CCCN2C(C)=O)cn1` [Example 26, 6-[(R)-1-acetylpyrrolidin-2-yl]-5-[6-(N-ethylcarbamoyl)pyridin-3-yloxy]-2-(pyrazin-2-yl)-1H-indole], in data set [1], the Emax came out at 942% and the EC50 turned out to be 160 nM. This compound also registered a solubility at 60 min in data set [2] of 129 µM (≈ 60.7 µg/mL).

As for `CC(=O)N1CCC[C@@H]1c1cc2[nH]c(-c3cnc(C)cn3)cc2cc1Oc1ccc(OCCO)nc1` [Example 13, 6-[(R)-1-acetylpyrrolidin-2-yl]-5-[6-(2-hydroxyethoxy)pyridin-3-yloxy]-2-(5-methylpyrazin-2-yl)-1H-indole], in data set [1], the maximal response (Emax) worked out at 995% and the EC50 came out at 230 nM. Besides, the solubility at 60 min in data set [2] turned out to be 93.7 µM (≈ 44.4 µg/mL).

As for `CC(=O)N1CCC[C@@H]1c1cc2[nH]c(-c3cnccn3)cc2cc1Oc1ccc(S(C)(=O)=O)nc1` [Example 2], in data set [1], the EC50 came to 90 nM. The same compound came in with a solubility at 60 min in data set [2] of over 170 µM.

On to `CC(=O)N1CCC[C@@H]1c1cc2[nH]c(-c3cnccn3)cc2cc1Oc1ccc(C(=O)N(C)CCO)nc1` [Example 28], for which, in data set [1], the EC50 is 100 nM. The same compound came in with a solubility at 60 min in data set [2] of over 170 µM.

In the case of `COCc1ccc(Oc2cc3cc(-c4cnc(CO)cn4)[nH]c3cc2[C@H]2CCCN2C(C)=O)cn1` [Example 16, 6-[(R)-1-acetylpyrrolidin-2-yl]-2-(5-hydroxymethylpyrazin-2-yl)-5-(6-methoxymethylpyridin-3-yloxy)-1H-indole], the concentration giving a half-maximal response (EC50) in data set [1] stood at 170 nM. The solubility at 60 min in data set [2] is over 170 µM.

In the case of `CC(=O)N1CCC[C@@H]1c1cc2[nH]c(-c3cnc(C)cn3)cc2cc1Oc1ccc(CO)nc1` [Example 7, 6-[(R)-1-acetylpyrrolidin-2-yl]-5-(6-hydroxymethylpyridin-3-yloxy)-2-(5-methylpyrazin-2-yl)-1H-indole], the 50% effective concentration (EC50) in data set [1] was 120 nM. The compound further showed a solubility at 60 min in data set [2] of over 170 µM.

`CC(=O)N1CCC[C@@H]1c1cc2[nH]c(-c3ccn(C)n3)cc2cc1Oc1ccc(S(C)(=O)=O)nc1` [Example 4, 6-[(R)-1-acetylpyrrolidin-2-yl]-2-(1-methyl-1H-pyrazol-3-yl)-5-(6-methylsulfonylpyridin-3-yloxy)-1H-indole]: in data set [1], the maximal response (Emax) was 943% and the concentration giving a half-maximal response (EC50) stood at 180 nM. In data set [2], this compound registered a solubility at 60 min of over 170 µM.

With `CC(=O)N1CCC[C@@H]1c1cc2[nH]c(-c3cnc(CO)cn3)cc2cc1Oc1ccc(S(C)(=O)=O)nc1` [Example 10, 6-[(R)-1-acetylpyrrolidin-2-yl]-2-(5-hydroxymethylpyrazin-2-yl)-5-(6-methylsulfonylpyridin-3-yloxy)-1H-indole], the 50% effective concentration (EC50) in data set [1] was determined as 110 nM. Also, the concentration in solution in data set [2] (solubility at 60 min) came to 95.1 µM (≈ 48.3 µg/mL).
